# Measurements published in US12471596B2 (priority 2019, dated 2025).
# Experiments:
# [1] = test system: Phytophthora infestans; assay: whole plant or invertebrate; format: in vivo, Phytophthora infestans on tomato plants; conditions: in Solanum lycopersicum, 24 h, read-out: control compared to the untreated check
# [2] = test system: Phytophthora infestans; assay: microbe, parasite or virus in culture; format: cell-based; conditions: in Secale cereale, 168 h, read-out: control compared to the untreated check
SMILES,pest or weed control at 50 ppm [1],inhibition of growth at 30 ppm [2]
"CS(=O)(=O)Oc1cccc(Cl)c1C1CC(c2csc(C3CCN(C(=O)COc4nccnc4C(F)(F)F)CC3)n2)=NO1 (centres unmarked) [Compound 6, 3-chloro-2-(3-(2-(1-(2-((3-(trifluoromethyl)pyrazin-2-yl)oxy)acetyl)piperidin-4-yl)thiazol-4-yl)-4,5-dihydroisoxazol-5-yl)phenyl methanesulfonate]",≥ 70%,≥ 70%
"COc1ccnc(OCC(=O)N2CCC(c3nc(C4=NOC(c5c(Cl)cccc5OS(C)(=O)=O)C4)cs3)CC2)n1 (centres unmarked) [Compound 32, 3-chloro-2-(3-(2-(1-(2-((4-methoxypyrimidin-2-yl)oxy)acetyl)piperidin-4-yl)thiazol-4-yl)-4,5-dihydroisoxazol-5-yl)phenyl methanesulfonate]",≥ 70%,≥ 70%
"O=C(COc1ccnc(C(F)(F)F)n1)N1CCC(c2nc(C3=NOC(c4c(F)cccc4Br)C3)cs2)CC1 (centres unmarked) [Compound 15, 1-(4-(4-(5-(2-bromo-6-fluorophenyl)-4,5-dihydroisoxazol-3-yl)thiazol-2-yl)piperidin-1-yl)-2-((2-(trifluoromethyl)pyrimidin-4-yl)oxy)ethan-1-one]",≥ 70%,≥ 70%
"O=C(COc1ccnc(C(F)(F)F)n1)N1CCC(c2nc(C3=NOC(c4c(Cl)cccc4Cl)C3)cs2)CC1 (centres unmarked) [Compound 16, 1-(4-(4-(5-(2,6-dichlorophenyl)-4,5-dihydroisoxazol-3-yl)thiazol-2-yl)piperidin-1-yl)-2-((2-(trifluoromethyl)pyrimidin-4-yl)oxy)ethan-1-one]",≥ 70%,≥ 70%
"CS(=O)(=O)Oc1cccc(Cl)c1C1CC(c2csc(C3CCN(C(=O)COc4ccc(C(F)(F)F)nn4)CC3)n2)=NO1 (centres unmarked) [Compound 41, 3-chloro-2-(3-(2-(1-(2-((6-(trifluoromethyl)pyridazin-3-yl)oxy)acetyl)piperidin-4-yl)thiazol-4-yl)-4,5-dihydroisoxazol-5-yl)phenyl methanesulfonate]",≥ 70%,≥ 70%
"COc1nccnc1OCC(=O)N1CCC(c2nc(C3=NOC(c4c(F)cccc4Cl)C3)cs2)CC1 (centres unmarked) [Compound 25, 1-(4-(4-(5-(2-chloro-6-fluorophenyl)-4,5-dihydroisoxazol-3-yl)thiazol-2-yl)piperidin-1-yl)-2-((3-methoxypyrazin-2-yl)oxy)ethan-1-one]",≥ 70%,≥ 70%
"N#Cc1cccc(Cl)c1C1CC(c2csc(C3CCN(C(=O)COc4ccc(C(F)(F)F)nn4)CC3)n2)=NO1 (centres unmarked) [Compound 40, 3-chloro-2-(3-(2-(1-(2-((6-(trifluoromethyl)pyridazin-3-yl)oxy)acetyl)piperidin-4-yl)thiazol-4-yl)-4,5-dihydroisoxazol-5-yl)benzonitrile]",≥ 70%,≥ 70%
"O=C(COc1ccnc(C(F)(F)F)n1)N1CCC(c2nc(C3=NOC(c4c(F)cccc4F)C3)cs2)CC1 (centres unmarked) [Compound 17, 1-(4-(4-(5-(2,6-difluorophenyl)-4,5-dihydroisoxazol-3-yl)thiazol-2-yl)piperidin-1-yl)-2-((2-(trifluoromethyl)pyrimidin-4-yl)oxy)ethan-1-one]",≥ 70%,≥ 70%
"O=C(COc1ccc(C(F)(F)F)nn1)N1CCC(c2nc(C3=NOC(c4c(F)cccc4F)C3)cs2)CC1 (centres unmarked) [Compound 42, 1-(4-(4-(5-(2,6-difluorophenyl)-4,5-dihydroisoxazol-3-yl)thiazol-2-yl)piperidin-1-yl)-2-((6-(trifluoromethyl)pyridazin-3-yl)oxy)ethan-1-one]",≥ 70%,≥ 70%
"O=C(COc1ccnc(C(F)(F)F)n1)N1CCC(c2nc(C3=NOC(c4c(Cl)cccc4C(F)(F)F)C3)cs2)CC1 (centres unmarked) [Compound 18, 1-(4-(4-(5-(2-chloro-6-(trifluoromethyl)phenyl)-4,5-dihydroisoxazol-3-yl)thiazol-2-yl)piperidin-1-yl)-2-((2-(trifluoromethyl)pyrimidin-4-yl)oxy)ethan-1-one]",≥ 70%,≥ 70%
"COc1nccnc1OCC(=O)N1CCC(c2nc(C3=NOC(c4c(Cl)cccc4OS(C)(=O)=O)C3)cs2)CC1 (centres unmarked) [Compound 29, 3-chloro-2-(3-(2-(1-(2-((3-methoxypyrazin-2-yl)oxy)acetyl)piperidin-4-yl)thiazol-4-yl)-4,5-dihydroisoxazol-5-yl)phenyl methanesulfonate]",≥ 70%,≥ 70%
"O=C(COc1ccc(C(F)(F)F)nn1)N1CCC(c2nc(C3=NOC(c4c(F)cccc4Cl)C3)cs2)CC1 (centres unmarked) [Compound 39, 1-(4-(4-(5-(2-chloro-6-fluorophenyl)-4,5-dihydroisoxazol-3-yl)thiazol-2-yl)piperidin-1-yl)-2-((6-(trifluoromethyl)pyridazin-3-yl)oxy)ethan-1-one]",≥ 70%,≥ 70%
"O=C(COc1ccc(C(F)(F)F)nn1)N1CCC(c2nc(C3=NOC(c4c(Cl)cccc4Cl)C3)cs2)CC1 (centres unmarked) [Compound 38, 1-(4-(4-(5-(2,6-dichlorophenyl)-4,5-dihydroisoxazol-3-yl)thiazol-2-yl)piperidin-1-yl)-2-((6-(trifluoromethyl)pyridazin-3-yl)oxy)ethan-1-one]",≥ 70%,≥ 70%
"O=C(COc1nccnc1C(F)(F)F)N1CCC(c2nc(C3=NOC(c4c(Cl)cccc4C(F)(F)F)C3)cs2)CC1 (centres unmarked) [Compound 4, 1-(4-(4-(5-(2-chloro-6-(trifluoromethyl)phenyl)-4,5-dihydroisoxazol-3-yl)thiazol-2-yl)piperidin-1-yl)-2-((3-(trifluoromethyl)pyrazin-2-yl)oxy)ethan-1-one]",≥ 70%,≥ 70%
"COc1nccnc1OCC(=O)N1CCC(c2nc(C3=NOC(c4c(F)cccc4Br)C3)cs2)CC1 (centres unmarked) [Compound 28, 1-(4-(4-(5-(2-bromo-6-fluorophenyl)-4,5-dihydroisoxazol-3-yl)thiazol-2-yl)piperidin-1-yl)-2-((3-methoxypyrazin-2-yl)oxy)ethan-1-one]",≥ 70%,≥ 70%
"COc1ccnc(OCC(=O)N2CCC(c3nc(C4=NOC(c5c(F)cccc5Cl)C4)cs3)CC2)n1 (centres unmarked) [Compound 34, 1-(4-(4-(5-(2-chloro-6-fluorophenyl)-4,5-dihydroisoxazol-3-yl)thiazol-2-yl)piperidin-1-yl)-2-((4-methoxypyrimidin-2-yl)oxy)ethan-1-one]",≥ 70%,≥ 70%
"COc1nccnc1OCC(=O)N1CCC(c2nc(C3=NOC(c4c(Cl)cccc4C#N)C3)cs2)CC1 (centres unmarked) [Compound 26, 3-chloro-2-(3-(2-(1-(2-((3-methoxypyrazin-2-yl)oxy)acetyl)piperidin-4-yl)thiazol-4-yl)-4,5-dihydroisoxazol-5-yl)benzonitrile]",≥ 70%,≥ 70%
"COc1nccnc1OCC(=O)N1CCC(c2nc(C3=NOC(c4c(F)cccc4F)C3)cs2)CC1 (centres unmarked) [Compound 27, 1-(4-(4-(5-(2,6-difluorophenyl)-4,5-dihydroisoxazol-3-yl)thiazol-2-yl)piperidin-1-yl)-2-((3-methoxypyrazin-2-yl)oxy)ethan-1-one]",≥ 70%,≥ 70%
"COc1ccnc(OCC(=O)N2CCC(c3nc(C4=NOC(c5c(Cl)cccc5Cl)C4)cs3)CC2)n1 (centres unmarked) [Compound 33, 1-(4-(4-(5-(2,6-dichlorophenyl)-4,5-dihydroisoxazol-3-yl)thiazol-2-yl)piperidin-1-yl)-2-((4-methoxypyrimidin-2-yl)oxy)ethan-1-one]",≥ 70%,≥ 70%
"COc1ccnc(OCC(=O)N2CCC(c3nc(C4=NOC(c5c(Cl)cc(Cl)cc5Cl)C4)cs3)CC2)n1 (centres unmarked) [Compound 35, 2-((4-methoxypyrimidin-2-yl)oxy)-1-(4-(4-(5-(2,4,6-trichlorophenyl)-4,5-dihydroisoxazol-3-yl)thiazol-2-yl)piperidin-1-yl)ethan-1-one]",≥ 70%,–
"CS(=O)(=O)c1nccnc1OCC(=O)N1CCC(c2nc(C3=NOC(c4c(F)cccc4Br)C3)cs2)CC1 (centres unmarked) [Compound 159, 1-(4-(4-(5-(2-bromo-6-fluorophenyl)-4,5-dihydroisoxazol-3-yl)thiazol-2-yl)piperidin-1-yl)-2-((3-(methylsulfonyl)pyrazin-2-yl)oxy)ethan-1-one]",–,≥ 70%
"COc1ccnc(OCC(=O)N2CCC(c3nc(C4=NOC(c5c(F)cccc5Br)C4)cs3)CC2)n1 (centres unmarked) [Compound 44, 1-(4-(4-(5-(2-bromo-6-fluorophenyl)-4,5-dihydroisoxazol-3-yl)thiazol-2-yl)piperidin-1-yl)-2-((4-methoxypyrimidin-2-yl)oxy)ethan-1-one]",–,≥ 70%
"COc1cncc(OCC(=O)N2CCC(c3nc(C4=NOC(c5c(Cl)ccc(F)c5F)C4)cs3)CC2)n1 (centres unmarked) [Compound 104, 1-(4-(4-(5-(6-chloro-2,3-difluorophenyl)-4,5-dihydroisoxazol-3-yl)thiazol-2-yl)piperidin-1-yl)-2-((6-methoxypyrazin-2-yl)oxy)ethan-1-one]",–,≥ 70%
"N#Cc1ccnc(OCC(=O)N2CCC(c3nc(C4=NOC(c5cc(Cl)ccc5Cl)C4)cs3)CC2)n1 (centres unmarked) [Compound 152, 2-(2-(4-(4-(5-(2,5-dichlorophenyl)-4,5-dihydroisoxazol-3-yl)thiazol-2-yl)piperidin-1-yl)-2-oxoethoxy)pyrimidine-4-carbonitrile]",–,≥ 70%
"CSc1nccnc1OCC(=O)N1CCC(c2nc(C3=NOC(c4c(Cl)cccc4Br)C3)cs2)CC1 (centres unmarked) [Compound 158, 1-(4-(4-(5-(2-bromo-6-chlorophenyl)-4,5-dihydroisoxazol-3-yl)thiazol-2-yl)piperidin-1-yl)-2-((3-(methylthio)pyrazin-2-yl)oxy)ethan-1-one]",–,≥ 70%
